The assay deals with STC-1 cells GLP-1 secretion. The experiment in a line: half-maximal inhibitory concentration, STC-1 line, glucagon-like peptide-1 release potency, dose-dependent response (AID 1117345).

Active and inactive are the calls of the source. No rule for the calls is given here.

Regarding `CC(=O)[O][Hg][c]1ccccc1`, the IC50 was 0.713 µM.

With `OCCN1CCN(CC/C=C2/c3ccccc3Sc3ccc(C(F)(F)F)cc32)CC1`, the IC50 was > 40 µM (inactive).

Regarding `CCCCCCCCCCCC(=O)[O][Sn]([CH2]CCC)([CH2]CCC)[O]C(=O)CCCCCCCCCCC`, the IC50 is > 40 µM (inactive).

For the compound `CCCCCCCCCCCCCC[N+](C)(C)C`, the IC50 was > 40 µM (inactive).

With `Cc1ccc([N+](=O)[O-])[c]2c1[O][Hg]2`, the IC50 is 0.0972 µM.

As usually defined, the IC50 is the concentration needed to halve the response being measured.

Source of the values: PubChem BioAssay AID1117345.
